This note sets out measurements from patent publication US7803795B2, “Phthalazine derivatives as parp inhibitors” (Janssen Pharmaceutica N.V., priority 2004, dated 2010).

T1 sequence (P09874 whole entry): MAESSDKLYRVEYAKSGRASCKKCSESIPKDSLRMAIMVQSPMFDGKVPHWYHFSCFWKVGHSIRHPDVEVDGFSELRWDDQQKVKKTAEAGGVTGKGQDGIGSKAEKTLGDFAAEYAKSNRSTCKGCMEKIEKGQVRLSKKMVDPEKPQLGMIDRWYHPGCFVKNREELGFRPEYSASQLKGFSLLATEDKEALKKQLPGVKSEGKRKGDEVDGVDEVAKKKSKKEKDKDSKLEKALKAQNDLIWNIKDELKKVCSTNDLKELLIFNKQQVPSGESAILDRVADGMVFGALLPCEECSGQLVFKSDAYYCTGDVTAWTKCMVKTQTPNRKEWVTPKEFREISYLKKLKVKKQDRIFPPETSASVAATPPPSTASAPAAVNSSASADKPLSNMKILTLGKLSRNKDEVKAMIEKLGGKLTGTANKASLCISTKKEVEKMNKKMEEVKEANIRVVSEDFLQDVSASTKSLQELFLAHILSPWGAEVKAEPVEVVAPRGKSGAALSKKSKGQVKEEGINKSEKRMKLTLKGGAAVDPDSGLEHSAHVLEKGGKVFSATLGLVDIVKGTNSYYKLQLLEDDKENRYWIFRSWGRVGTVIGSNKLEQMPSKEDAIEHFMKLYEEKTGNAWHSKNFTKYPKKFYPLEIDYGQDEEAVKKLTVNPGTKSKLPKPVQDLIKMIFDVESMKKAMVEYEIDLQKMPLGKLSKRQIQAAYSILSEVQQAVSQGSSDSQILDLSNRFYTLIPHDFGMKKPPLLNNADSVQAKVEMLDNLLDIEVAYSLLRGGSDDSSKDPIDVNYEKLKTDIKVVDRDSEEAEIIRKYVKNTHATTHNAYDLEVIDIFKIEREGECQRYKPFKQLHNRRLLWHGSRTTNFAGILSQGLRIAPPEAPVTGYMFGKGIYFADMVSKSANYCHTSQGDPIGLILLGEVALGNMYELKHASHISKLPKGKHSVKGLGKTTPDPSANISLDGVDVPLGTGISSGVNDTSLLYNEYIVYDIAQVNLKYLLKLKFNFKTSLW

This assay addresses T1, PARP-1 enzyme (Homo sapiens, UniProt P09874).
T1 construct: made in house
Put plainly: in vitro filtration assay for PARP-1 inhibitory activity. The following applies: [32P]-NAD, histones, nicked DNA; dose-response 10^-5 M to 10^-8 M; read-out: in vitro filter assay PARP-1 pIC50 (converted). The assay is classed as biochemical. The protocol:
In Vitro Filtration Assay for PARP-1 Inhibitory Activity
Compounds of the present invention were tested in an in vitro filtration assay assessing PARP-1 activity (triggered in the presence of nicked DNA) by means of its histone poly (ADP-ribosylation activity using [^32P]-NAD as ADP-ribosyl donor. The radioactive ribosylated histones were precipitated by trichloroacetic acid (TCA) in 96-well filterplates and the incorporated [^32P] measured using a scintillation counter
A mixture of histones (stock solution: 5 mg/ml in H2O), NAD^+ (stock solution: 100 mM in H2O), and [^32P]-NAD^+ in incubation buffer (50 mM Tris/HCl, pH 8; 0.2 mM DTT; 4 mM MgCl2) was made. A mixture of the PARP-1 enzyme (5-10 μg/ml) and nicked DNA was also made. The nicked DNA was prepared as described in the in vitro SPA for PARP-1 inhibitory activity. Seventy-five μl of the PARP-1 enzyme/DNA mixture together with 1 μl of compound in DMSO and 25 μl of histones-NAD^+/[^32P]-NAD^+ mixture was added per well of a 96-well filterplate (0.45 μm, supplier Millipore). The final concentrations in the incubation mixture were 2 μg/ml for the histones, 0.1 mM for the NAD^+, […] (0.5 μC) for the [^32P]-NAD^+ and 2 μg/ml for the nicked DNA. Plates were incubated for 15 min. at room temperature and the reaction was terminated by the addition of 10 μl ice cold 100% TCA followed by the addition of 10 μl ice-cold BSA solution (1% in H2O). The protein fraction was allowed to precipitate for 10 min. at 4° C. and plates were vacuum filtered. The plates were subsequently washed with, for each well, 1 ml of 10% ice cold TCA, 1 ml of 5% ice cold TCA and 1 ml of 5% TCA at room temperature. Finally 100 μl of scintillation solution (Microscint 40, Packard) was added to each well and the plates were transferred to a TopCountNXT™ (supplier: Packard) for scintillation counting and values were expressed as counts per minute (cpm). For each experiment, controls (containing PARP-1 enzyme and DMSO without compound), a blank incubation (containing DMSO but no PARP-1 enzyme or compound) and samples (containing PARP-1 enzyme and compound dissolved in DMSO) were run in parallel. All compounds tested were dissolved and eventually further diluted in DMSO. In first instance, compounds were tested at a concentration of 10^−5M. […] In each test, the blank value was subtracted from both the control and the sample values. The control sample represented maximal PARP-1 enzyme activity. For each sample, the amount of cpm was expressed as a percentage of the mean cpm value of the controls. When appropriate, IC50-values (concentration of the drug, needed to reduce the PARP-1 enzyme activity to 50% of the control) were computed using linear interpolation between the experimental points just above and below the 50% level. Herein the effects of test compounds are expressed as pIC50 (the negative log value of the IC50-value). As a reference compound, 4-amino-1,8-naphthalimide was included to validate the filtration assay.
In the case of `O=c1[nH]nc(NC2CCN(C[C@@H](O)[C@@H]3CCc4ccccc4O3)CC2)c2ccccc12` (relative stereo) [Compound 27], the IC50 is 215 nM.
As for `O=c1[nH]nc(C2CCN(Cc3ccccc3)CC2)c2ccccc12` [Compound 1], the IC50 is 55 nM.
On to `O=c1[nH]nc(N[C@@H]2C[C@H]3CC[C@@H](C2)N3CCCC(c2ccc(F)cc2)c2ccc(F)cc2)c2ccccc12` [Compound 3], for which the IC50 is 204 nM.
As for `O=c1[nH]nc(C2CCNCC2)c2ccccc12` [Compound 4], the IC50 is 70.8 nM.
For the molecule `CCOC(=O)N1[C@@H]2CC[C@H]1C[C@H](Nc1n[nH]c(=O)c3ccccc13)C2` [Compound 11], the IC50 is 30 nM.
For `Clc1nnc(NC2CCN(Cc3ccccc3)C2)c2ccccc12` (centres unmarked) [Compound 12], the IC50 is 188 nM.
With `O=c1[nH]nc(C2CCN(CCCOc3ccc(F)cc3)CC2)c2ccccc12` [Compound 13], the IC50 was 19.1 nM.
`O=c1[nH]nc(N[C@@H]2C[C@H]3CC[C@@H](C2)N3)c2ccccc12` [Compound 15]: the IC50 is 35.5 nM.
`CCOC(=O)N1[C@@H]2CC[C@H]1C[C@H](Nc1nnc(Cl)c3ccccc13)C2` [Compound 24]: the IC50 was 388 nM.
For `CCOC(=O)N1CCC(c2n[nH]c(=O)c3ccccc23)CC1` [Compound 25], the IC50 was 240 nM.
In the case of `Cc1nnc(N2CCN(CCCC(c3ccc(F)cc3)c3ccc(F)cc3)CC2)c2ccccc12` [Compound 29], the IC50 was 302 nM.
With `O=c1[nH]nc(NC2CCCN(CCCC(c3ccc(F)cc3)c3ccc(F)cc3)CC2)c2ccccc12` (centres unmarked) [Compound 30], the IC50 was 230 nM.
To `O=c1[nH]nc(NC2CCCNCC2)c2ccccc12` (centres unmarked) [Compound 34] belongs 49.4 nM; to `O=c1[nH]nc(NCC2CCCN(Cc3ccccc3)C2)c2ccccc12` (centres unmarked) [Compound 44], 221 nM.
Take `O=c1[nH]nc(NC2CCN(CCCCOc3ccccc3)CC2)c2ccccc12` [Compound 46]: the IC50 is 134 nM.
For `CCOC(=O)N1CCC(Nc2n[nH]c(=O)c3ccccc23)C1` (centres unmarked) [Compound 48], the IC50 is 163 nM.
To `O=c1[nH]nc(NCC2CCCN(CCCC(c3ccc(F)cc3)c3ccc(F)cc3)C2)c2ccccc12` (centres unmarked) [Compound 49] belongs 516 nM; to `CCOC(=O)N1CCCC(Nc2n[nH]c(=O)c3ccccc23)CC1` (centres unmarked) [Compound 50], 643 nM.
As to `O=c1[nH]nc(NC2CCN(Cc3ccccc3)C2)c2ccccc12` (centres unmarked) [Compound 51], the IC50 is 300 nM.
`O=c1[nH]nc(N2CCN(CCCC(c3ccc(F)cc3)c3ccc(F)cc3)CC2)c2ccccc12` [Compound 52]: the IC50 is 356 nM.
In the case of `O=c1[nH]nc(NC2CCCN(Cc3ccccc3)C2)c2ccccc12` (centres unmarked) [Compound 53], the IC50 was 217 nM.
Take `O=c1[nH]nc(N2CCC(c3cccc(C(F)(F)F)c3)C2)c2ccccc12` (centres unmarked) [Compound 55]: the IC50 is 210 nM.
Consider `CCOC(=O)N1CCC(Nc2n[nH]c(=O)c3ccccc23)CC1` [Compound 56], for which the IC50 is 774 nM.
With `Fc1ccc(C(CCCN2CCN(c3nnc(Cl)c4ccccc34)CC2)c2ccc(F)cc2)cc1` [Compound 57], the IC50 was 472 nM.
Under `CCOC(=O)N1CCN(c2nnc(Cl)c3ccccc23)CC1` [Compound 58] stands 316 nM; under `Clc1nnc(NC2CCN(CCCCOc3ccccc3)CC2)c2ccccc12` [Compound 59], 813 nM.
On to `CN(c1nc2ccccc2s1)C1CCN(c2nnc(Cl)c3ccccc23)CC1` [Compound 61], for which the IC50 is 296 nM.
As for `COc1ccc(CCN2CCC(Nc3n[nH]c(=O)c4ccccc34)CC2)cc1` [Compound 63], the IC50 is 146 nM.
For the molecule `O=c1[nH]nc(NC2CCN(C/C=C/c3ccccc3)CC2)c2ccccc12` [Compound 65], the IC50 was 91.2 nM.
As for `O=c1[nH]nc(C2CCN(C/C=C/c3ccccc3)CC2)c2ccccc12` [Compound 66], the IC50 was 96.4 nM.
For the molecule `O=c1[nH]nc(C2CCN(CCCC(c3ccc(F)cc3)c3ccc(F)cc3)CC2)c2ccccc12` [Compound 67], the IC50 is 233 nM.
On to `O=c1[nH]nc(C2CCN(CCCCOc3ccccc3)CC2)c2ccccc12` [Compound 68], for which the IC50 is 50 nM.
For `O=c1[nH]nc(C2CCN(c3ncccn3)CC2)c2ccccc12` [Compound 69], the IC50 is 125 nM.
As to `Cc1nnc(N2CCN(CCn3c(=O)[nH]c4ccccc4c3=O)CC2)c2ccccc12` [Compound 70], the IC50 is 268 nM.
Under `Cc1nnc(N2CCN(CCn3c(=O)[nH]c4ccccc43)CC2)c2ccccc12` [Compound 71] stands 533 nM; under `Cc1nc2ccccn2c(=O)c1CCN1CCN(c2nnc(C)c3ccccc23)CC1` [Compound 72], 1050 nM; under `Cc1nc2sccn2c(=O)c1CCN1CCN(c2nnc(C)c3ccccc23)CC1` [Compound 73], 515 nM.
Turning to `Cc1nc2scc(C)n2c(=O)c1CCN1CCN(c2nnc(C)c3ccccc23)CC1` [Compound 74], the IC50 is 610 nM.
Regarding `Cc1nc2n(c(=O)c1CCN1CCN(c3nnc(C)c4ccccc34)CC1)CCS2` [Compound 75], the IC50 was 361 nM.
Turning to `Cc1nc2n(c(=O)c1CCN1CCN(c3nnc(C)c4ccccc34)CC1)CCCS2` [Compound 76], the IC50 is 413 nM.
For the molecule `Clc1nnc(N2CCN(c3ccccc3)CC2)c2ccccc12` [Compound 77], the IC50 is 168 nM.
